Laboratory results as given in patent US9919998B2, “Antibacterial agents: Nα-aroyl-N-aryl-phenylalaninamides” (priority 2014, dated 2018).
Values after ≈ are worked out from the molar mass of the structure shown. Values joined by “and” are separate entries in the source; they are usually repeats but may differ in a detail not shown here. Identical values can stand only once. Like-named read-outs stand apart in the source and are kept apart here.

How the values were obtained:
[1] = biological target: Mycobacterium tuberculosis RNA polymerase (Mycobacterium tuberculosis, UniProt P9WGY7+P9WGY9); experiment: Run-off transcription assay with Mycobacterium tuberculosis RNA polymerase (radiochemical); assay type: biochemical
Protocol: Run-off transcription assays with Mycobacterium tuberculosis RNA polymerase were performed using reaction mixtures containing (10 μl): 0-100 μM test compound, 75 nM Mycobacterium tuberculosis RNA polymerase core enzyme, 300 nM Mycobacterium tuberculosis σ^A, 20 nM 130 bp DNA fragment containing positions −100 to −1 of the bacteriophage […] N25 promoter followed by positions +1 to +30 of the lacUV5-15 promoter of [Mukhopadhyay, J., Kapanidis, A., Mekler, V., Kortkhonjia, E., Ebright, Y., Ebright, R. (2001) Cell 106, 453-463], 25 nM [alpha-^32P]UTP (600 Bq/pmol) for an initial 2 min at 37° C. and 100 μM [alpha-^32P]UTP (6 Bq/pmol) for a subsequent 5 min at 37° C., 100 μM ATP, 100 μM GTP, 100 μM UTP, 100 μM CTP, 40 mM Tris-HCl, pH 8.0, 80 mM NaCl, 5 mM MgCl2, 2.5 mM DTT, and 12.7% glycerol. Reactions were terminated by addition of […] 80% formamide, 10 mM EDTA, 0.04% bromophenol blue, and 0.04% xylene cyanol, followed by heating for 5 min at 90° C. Reaction products were resolved by 15% urea-PAGE, and quantified using a storage-phosphor scanner.

[2] = system: Mycobacterium tuberculosis H37Rv; experiment: Microplate Alamar Blue assay (MABA) MIC, M. tuberculosis; assay type: cell-based
Text: (§1) Minimal inhibitory concentrations (MICs) in Mycobacterium tuberculosis H37Rv and Mycobacterium avium ATCC 25291 were quantified using microplate Alamar Blue assays as described (MABA; [Collins, L. & Franzblau, S. (1997) Microplate Alamar Blue assay versus BACTEC 460 system for high-throughput screening of compounds against Mycobacterium tuberculosis and Mycobacterium avium. Antimicrob. Agents Chemother. 41, 1004-1009]).

[3] = system: Mycobacterium smegmatis ATCC 19420; experiment: Broth microdilution MIC, M. smegmatis; assay type: cell-based; settings: Mycolicibacterium smegmatis
Text: (§2) MICs in Mycobacterium smegmatis ATCC 19420 and Mycobacterium smegmatis ATCC 19420 derivatives were quantified using broth microdilution assays as described [Clinical and Laboratory Standards Institute (CLSI/NCCLS) (2009) Methods for Dilution Antimicrobial Susceptibility Tests for Bacteria That Grow Aerobically; Approved Standard, Eighth Edition. CLIS Document M07-A8 (CLIS, Wayne Pa.)].

[4] = system: Vero E6 ATCC CRL1586 cells; experiment: Mammalian-cell cytotoxicity, minimal cytotoxic concentration (CellTiter96); assay type: cell-based
Protocol: Minimal cytotoxic concentrations (MCCs) against mammalian cells in culture were determined using Vero E6 ATCC CRL1586 cells and the CellTiter96 assay kit (Promega, Inc.). […]

[5] = system: Mycobacterium avium ATCC 25291; experiment: Microplate Alamar Blue assay (MABA) MIC, M. avium; assay type: cell-based; settings: ATCC25291, M. avium ATCC 25291
Text: as §1

[6] = system: rifampin-resistant mutants, derivatives of M. smegmatis ATCC19420; experiment: MICs in rifampin-resistant mutants (cross-resistance levels); assay type: cell-based, Mycobacterium smegmatis
Text: as §2

[7] = system: AAP1-resistant mutants, derivatives of M. smegmatis ATCC19420; experiment: MICs in AAP1-resistant mutants (resistance and cross-resistance levels); assay type: cell-based, Mycobacterium smegmatis; settings: MICs in AAP1-resistant mutants
[8] = radiochemical transcription assays, M. tuberculosis RNA polymerase, read-out: Inhibition of mycobacterial RNA polymerase (IC50s)
[9] = Inhibition of mycobacterial RNA polymerase (IC50s), radiochemical transcription assays, M. tuberculosis RNA polymerase
[10] = MABA-MIC assays, read-out: Inhibition of mycobacterial growth in culture (MICs)
[11] = ATCC19420, broth microdilution assays, M. smegmatis ATCC19420, read-out: Inhibition of mycobacterial growth in culture (MICs)
[12] = IC50 Mycobacterium tuberculosis RNA polymerase
[13] = read-out: MIC Mycobacterium tuberculosis H37Rv
[14] = ATCC19420, M. smegmatis ATCC 19420, read-out: MIC Mycobacterium smegmatis ATCC 19420

Sequence of Mycobacterium tuberculosis RNA polymerase (P9WGZ1 whole entry, the tested form may be a part): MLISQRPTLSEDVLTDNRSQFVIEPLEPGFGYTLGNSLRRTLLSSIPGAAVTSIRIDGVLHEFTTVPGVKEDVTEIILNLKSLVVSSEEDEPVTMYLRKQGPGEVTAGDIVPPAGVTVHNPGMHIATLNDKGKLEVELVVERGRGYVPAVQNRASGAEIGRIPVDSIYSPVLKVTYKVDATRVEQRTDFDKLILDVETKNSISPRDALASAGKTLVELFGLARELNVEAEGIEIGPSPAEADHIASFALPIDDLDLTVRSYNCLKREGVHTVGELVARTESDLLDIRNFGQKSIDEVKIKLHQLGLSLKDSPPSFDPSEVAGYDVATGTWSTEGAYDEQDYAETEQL
Sequence of Mycobacterium tuberculosis RNA polymerase (P9WGY5 whole entry, further chain, the tested form may be a part): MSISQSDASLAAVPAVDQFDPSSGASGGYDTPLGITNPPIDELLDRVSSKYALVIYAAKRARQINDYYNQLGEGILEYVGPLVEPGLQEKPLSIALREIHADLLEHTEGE
Sequence of Mycobacterium tuberculosis RNA polymerase (P9WGY9 whole entry, the tested form may be a part): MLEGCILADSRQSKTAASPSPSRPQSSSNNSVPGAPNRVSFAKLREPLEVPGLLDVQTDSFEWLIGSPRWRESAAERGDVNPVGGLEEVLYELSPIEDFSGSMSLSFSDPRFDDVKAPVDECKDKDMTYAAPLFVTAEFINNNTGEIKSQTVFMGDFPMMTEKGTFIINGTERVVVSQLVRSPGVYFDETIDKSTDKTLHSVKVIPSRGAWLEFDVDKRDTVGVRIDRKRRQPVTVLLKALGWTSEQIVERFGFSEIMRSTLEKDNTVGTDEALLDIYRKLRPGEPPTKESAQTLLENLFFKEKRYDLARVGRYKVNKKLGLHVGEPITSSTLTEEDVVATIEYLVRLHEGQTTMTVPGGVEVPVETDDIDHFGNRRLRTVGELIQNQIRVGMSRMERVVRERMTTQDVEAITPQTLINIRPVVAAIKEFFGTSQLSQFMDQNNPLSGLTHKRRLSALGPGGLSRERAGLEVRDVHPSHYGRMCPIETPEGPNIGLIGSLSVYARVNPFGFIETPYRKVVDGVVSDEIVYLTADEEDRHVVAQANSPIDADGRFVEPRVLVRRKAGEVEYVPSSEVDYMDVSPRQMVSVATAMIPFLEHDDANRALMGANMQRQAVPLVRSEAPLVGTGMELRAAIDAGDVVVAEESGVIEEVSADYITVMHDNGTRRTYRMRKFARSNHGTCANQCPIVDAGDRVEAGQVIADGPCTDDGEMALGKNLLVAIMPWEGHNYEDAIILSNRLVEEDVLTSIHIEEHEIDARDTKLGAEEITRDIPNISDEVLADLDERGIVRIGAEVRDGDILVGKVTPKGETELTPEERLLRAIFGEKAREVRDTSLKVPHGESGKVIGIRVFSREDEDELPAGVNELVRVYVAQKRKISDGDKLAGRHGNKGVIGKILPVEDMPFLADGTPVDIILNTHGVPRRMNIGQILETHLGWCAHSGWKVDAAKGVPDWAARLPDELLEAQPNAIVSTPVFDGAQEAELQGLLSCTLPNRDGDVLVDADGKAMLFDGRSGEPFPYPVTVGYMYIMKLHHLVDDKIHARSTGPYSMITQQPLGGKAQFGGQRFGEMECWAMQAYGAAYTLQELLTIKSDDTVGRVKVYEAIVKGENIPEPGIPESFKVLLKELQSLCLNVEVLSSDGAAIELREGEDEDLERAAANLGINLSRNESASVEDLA
Sequence of Mycobacterium tuberculosis RNA polymerase (P9WGI1 whole entry, further chain, the tested form may be a part): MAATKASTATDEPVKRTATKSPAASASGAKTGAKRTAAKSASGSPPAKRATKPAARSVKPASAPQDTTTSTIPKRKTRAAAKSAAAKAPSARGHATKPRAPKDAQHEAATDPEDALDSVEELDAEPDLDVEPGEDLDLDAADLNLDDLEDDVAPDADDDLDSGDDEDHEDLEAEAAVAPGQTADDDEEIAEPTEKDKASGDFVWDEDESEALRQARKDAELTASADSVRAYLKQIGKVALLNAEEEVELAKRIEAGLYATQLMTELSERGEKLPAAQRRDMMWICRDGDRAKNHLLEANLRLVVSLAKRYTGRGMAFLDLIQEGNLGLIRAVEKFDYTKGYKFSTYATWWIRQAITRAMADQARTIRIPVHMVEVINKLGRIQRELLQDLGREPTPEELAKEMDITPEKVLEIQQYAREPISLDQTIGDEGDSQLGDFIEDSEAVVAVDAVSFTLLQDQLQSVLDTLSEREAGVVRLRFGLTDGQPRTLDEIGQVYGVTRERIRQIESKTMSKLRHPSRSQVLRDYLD
Sequence of Mycobacterium tuberculosis RNA polymerase (P9WGY7 whole entry, the tested form may be a part): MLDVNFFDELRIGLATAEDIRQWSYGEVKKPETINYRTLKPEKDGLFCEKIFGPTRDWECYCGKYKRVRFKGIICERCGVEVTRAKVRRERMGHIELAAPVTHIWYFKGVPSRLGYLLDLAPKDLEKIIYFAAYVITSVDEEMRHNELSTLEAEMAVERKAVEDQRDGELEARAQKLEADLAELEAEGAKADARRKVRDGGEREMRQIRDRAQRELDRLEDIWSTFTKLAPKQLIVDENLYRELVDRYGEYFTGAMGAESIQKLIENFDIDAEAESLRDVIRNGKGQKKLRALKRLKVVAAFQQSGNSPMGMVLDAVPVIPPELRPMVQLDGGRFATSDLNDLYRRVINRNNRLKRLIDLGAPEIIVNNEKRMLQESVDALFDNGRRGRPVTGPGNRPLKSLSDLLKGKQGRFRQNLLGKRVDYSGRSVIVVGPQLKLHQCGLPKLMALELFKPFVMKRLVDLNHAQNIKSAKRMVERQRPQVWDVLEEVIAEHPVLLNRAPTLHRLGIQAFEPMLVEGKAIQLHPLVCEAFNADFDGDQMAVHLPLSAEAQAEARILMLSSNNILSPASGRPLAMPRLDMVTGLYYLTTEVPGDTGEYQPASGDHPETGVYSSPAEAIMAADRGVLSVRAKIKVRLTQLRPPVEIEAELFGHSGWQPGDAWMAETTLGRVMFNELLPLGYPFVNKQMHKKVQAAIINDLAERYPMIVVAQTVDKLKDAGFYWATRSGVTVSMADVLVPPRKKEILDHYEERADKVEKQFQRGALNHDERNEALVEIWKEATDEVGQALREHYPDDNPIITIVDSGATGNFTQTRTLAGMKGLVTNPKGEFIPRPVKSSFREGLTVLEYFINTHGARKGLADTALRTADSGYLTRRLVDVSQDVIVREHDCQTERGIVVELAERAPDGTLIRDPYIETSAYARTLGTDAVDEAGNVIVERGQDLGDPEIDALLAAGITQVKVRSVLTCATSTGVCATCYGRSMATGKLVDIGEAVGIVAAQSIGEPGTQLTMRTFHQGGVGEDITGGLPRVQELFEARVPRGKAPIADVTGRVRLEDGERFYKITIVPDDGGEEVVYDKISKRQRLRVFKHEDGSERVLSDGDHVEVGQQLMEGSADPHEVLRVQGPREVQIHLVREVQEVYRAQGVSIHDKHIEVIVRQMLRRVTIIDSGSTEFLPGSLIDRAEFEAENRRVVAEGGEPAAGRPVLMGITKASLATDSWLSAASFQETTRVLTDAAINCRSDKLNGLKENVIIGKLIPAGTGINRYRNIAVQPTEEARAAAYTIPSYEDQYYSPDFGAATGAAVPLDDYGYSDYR

SMILES: O=C(Nc1ccccn1)[C@H](Cc1ccccc1)Nc1ccccc1
- IC50 [1, 8]: ≥ 100 nM and ~1000 nM

SMILES: Cc1ccccc1NC(=O)[C@@H](Cc1ccccc1)NC(=O)c1ccccc1 [AAP1a, Nα-benzoyl-N-(2-methylphenyl)-D-phenylalaninamide]
- IC50 [1, 9]: 130 nM
- MIC [2, 10]: 3.13 µg/mL (≈ 8.73 µM)
- MIC [3, 11]: 0.2 µg/mL (≈ 0.558 µM)

SMILES: Cc1ccccc1NC(=O)[C@H](Cc1ccccc1)NC(=O)c1ccccc1 [AAP1b, Nα-benzoyl-N-(2-methylphenyl)-L-phenylalaninamide]
- IC50 [1, 9]: 12000 nM
- MIC [2, 10]: > 50 µg/mL
- MIC [3, 11]: 1.56 µg/mL (≈ 4.35 µM)

SMILES: Cc1ccc(NC(=O)C(Cc2ccccc2)NC(=O)c2ccco2)cc1 (stereo not shown) [AAP2]
- IC50 [1, 9]: 5300 nM
- MIC [2, 10]: 50 µg/mL (≈ 144 µM)

SMILES: Cc1ccccc1NC(=O)C(Cc1cccc(O)c1)NC(=O)c1ccccc1 (stereo not shown) [I-12]
- MCC mammalian cells Vero E6 ATCC CRL1586 [4]: >100 µg/mL
- IC50 [1, 12]: 3500 nM
- MIC [2, 13]: > 50 µg/mL
- MIC [3, 14]: 3.12 µg/mL (≈ 8.35 µM)

SMILES: Cc1ccc(F)cc1NC(=O)C(Cc1ccccc1)NC(=O)c1ccccc1 (stereo not shown) [I-75]
- MCC mammalian cells Vero E6 ATCC CRL1586 [4]: 4 µg/mL
- IC50 [1, 12]: 990 nM
- MIC [2, 13]: 1.56 µg/mL (≈ 4.14 µM)
- MIC [5]: 1.56 µg/mL (≈ 4.14 µM)
- MIC [3, 14]: 0.195 µg/mL (≈ 0.518 µM)

SMILES: Cc1ccccc1NC(=O)C(Cc1ccccc1)NC(=O)c1ccccc1F (stereo not shown) [I-80]
- MCC mammalian cells Vero E6 ATCC CRL1586 [4]: 43 µg/mL
- IC50 [1, 12]: 2800 nM
- MIC [2, 13]: 3.12 µg/mL (≈ 8.29 µM)
- cross-resistance of rifampin-resistant mutants to the compound [6]: No rifampin-resistant mutant was found to exhibit cross-resistance
- MIC [5]: 6.25 µg/mL (≈ 16.6 µM)
- MIC [3, 14]: 0.39 µg/mL (≈ 1.04 µM)

SMILES: Cc1ccc(Cl)cc1NC(=O)C(Cc1ccccc1)NC(=O)c1ccccc1 (stereo not shown) [I-86]
- MCC mammalian cells Vero E6 ATCC CRL1586 [4]: 13 µg/mL
- IC50 [1, 12]: 920 nM
- MIC [2, 13]: 1.56 µg/mL (≈ 3.97 µM)
- cross-resistance of rifampin-resistant mutants to the compound [6]: No rifampin-resistant mutant was found to exhibit cross-resistance
- MIC [5]: 3.12 µg/mL (≈ 7.95 µM)
- MIC [3, 14]: 0.195 µg/mL (≈ 0.496 µM)

SMILES: O=C(NC(Cc1ccccc1)C(=O)Nc1ccccc1N1CCOCC1)c1ccccc1 (stereo not shown) [I-181]
- MCC mammalian cells Vero E6 ATCC CRL1586 [4]: >100 µg/mL
- IC50 [1, 12]: 400 nM
- MIC [2, 13]: 0.78 µg/mL (≈ 1.82 µM)
- MIC [5]: 6.25 µg/mL (≈ 14.6 µM)
- MIC [3, 14]: 0.073 µg/mL (≈ 0.17 µM)

SMILES: O=C(NC(Cc1ccccc1)C(=O)Nc1ccccc1OCF)c1ccccc1 (stereo not shown) [IX-27, N-(1-((2-(fluoromethoxy)phenyl)amino)-1-oxo-3-phenylpropan-2-yl)benzamide]
- MCC mammalian cells Vero E6 ATCC CRL1586 [4]: >100 µg/mL
- IC50 [1, 12]: 990 nM
- MIC [2, 13]: 1.56 µg/mL (≈ 3.98 µM)
- MIC [5]: 3.12 µg/mL (≈ 7.96 µM)
- MIC [3, 14]: 0.195 µg/mL (≈ 0.497 µM)

SMILES: COc1ccc(F)cc1NC(=O)C(Cc1ccc(O)cc1)NC(=O)c1ccccc1F (stereo not shown) [IX-204, 2-fluoro-N-(1-((5-fluoro-2-methoxyphenyl)amino)-3-(4-hydroxy-phenyl)-1-oxopropan-2-yl)benzamide]
- MCC mammalian cells Vero E6 ATCC CRL1586 [4]: 50 µg/mL
- IC50 [1, 12]: 390 nM
- MIC [2, 13]: 0.78 µg/mL (≈ 1.83 µM)
- MIC [5]: 1.56 µg/mL (≈ 3.66 µM)
- MIC [3, 14]: 0.39 µg/mL (≈ 0.915 µM)

SMILES: O=C(NC(Cc1ccccc1)C(=O)Nc1cccc2scnc12)c1ccccc1 (stereo not shown) [IX-235, N-(1-(benzo[d]thiazol-4-ylamino)-1-oxo-3-phenylpropan-2-yl)benz-amide]
- cross-resistance of AAP1-resistant mutants to the compound [7]: cross-resistance
- MIC [2, 13]: 3.12 µg/mL (≈ 7.78 µM)
- MIC [5]: 6.25 µg/mL (≈ 15.6 µM)
- MIC [3, 14]: 0.78 µg/mL (≈ 1.94 µM)

SMILES: O=C(NC(Cc1ccccc1)C(=O)Nc1cc(F)ccc1N1CCNCC1)c1ccccc1 (stereo not shown) [IX-245, N-(1-((5-fluoro-2-(piperazin-1-yl)phenyl)amino)-1-oxo-3-phenyl-propan-2-yl)benzamide]
- MCC mammalian cells Vero E6 ATCC CRL1586 [4]: 17 µg/mL
- IC50 [1, 12]: 220 nM
- MIC [2, 13]: 1.56 µg/mL (≈ 3.49 µM)
- MIC [5]: 0.78 µg/mL (≈ 1.75 µM)
- MIC [3, 14]: 0.39 µg/mL (≈ 0.873 µM)

SMILES: COc1ccc(F)cc1NC(=O)C(Cc1ccccc1)NC(=O)c1ccccc1F (stereo not shown) [IX-276, 2-fluoro-N-(1-((5-fluoro-2-methoxyphenyl)amino)-1-oxo-3-phenyl-propan-2-yl)benzamide]
- cross-resistance of AAP1-resistant mutants to the compound [7]: cross-resistance
- MIC [2, 13]: 0.16 µg/mL (≈ 0.39 µM)
- MIC [5]: 0.78 µg/mL (≈ 1.9 µM)
- MIC [3, 14]: 0.39 µg/mL (≈ 0.95 µM)

SMILES: NC1CCN(c2ccc(F)cc2NC(=O)C(Cc2ccccc2)NC(=O)c2ccccc2F)CC1 (stereo not shown) [IX-312, N-(1-((2-(4-aminopiperidin-1-yl)-5-fluorophenyl)amino)-1-oxo-3-phenylpropan-2-yl)-2-fluorobenzamide]
- cross-resistance of AAP1-resistant mutants to the compound [7]: cross-resistance
- MIC [2, 13]: 3.13 µg/mL (≈ 6.54 µM)
- MIC [5]: 3.13 µg/mL (≈ 6.54 µM)
- MIC [3, 14]: 0.195 µg/mL (≈ 0.407 µM)

SMILES: O=C(NC(Cc1ccccc1)C(=O)Nc1cc(F)ccc1N1CC2CNCC2C1)c1ccccc1F (stereo not shown) [IX-313, 2-fluoro-N-(1-((5-fluoro-2-(hexahydropyrrolo[3,4-c]pyrrol-2(1H)-yl)phenyl)amino)-1-oxo-3-phenylpropan-2-yl)benzamide]
- cross-resistance of AAP1-resistant mutants to the compound [7]: cross-resistance
- MIC [2, 13]: 1.56 µg/mL (≈ 3.18 µM)
- MIC [5]: 1.56 µg/mL (≈ 3.18 µM)
- MIC [3, 14]: 0.39 µg/mL (≈ 0.795 µM)

SMILES: O=C(NC(Cc1ccccc1)C(=O)Nc1cc(F)ccc1N1CCNCC1)c1ccccc1Br (stereo not shown) [IX-315, 2-bromo-N-(1-((5-fluoro-2-(piperazin-1-yl)phenyl)amino)-1-oxo-3-phenylpropan-2-yl)benzamide]
- MCC mammalian cells Vero E6 ATCC CRL1586 [4]: 12.5 µg/mL
- IC50 [1, 12]: 210 nM
- MIC [2, 13]: 3.12 µg/mL (≈ 5.95 µM)
- MIC [5]: 1.56 µg/mL (≈ 2.97 µM)
- MIC [3, 14]: 0.39 µg/mL (≈ 0.742 µM)

SMILES: Cc1ccccc1N[C@@H](Cc1ccccc1)C(=O)Nc1ccccc1 [Nα-(2-methylphenyl)-N-phenyl-phenylalaninamide]
- IC50 [1, 8]: ≥ 100 nM
- MIC [3, 11]: ≥ 0.3 µg/mL

SMILES: O=C(Nc1ccccc1F)[C@H](Cc1ccccc1)Nc1ccccc1 [Nα-phenyl-N-(2-fluorophenyl)-phenylalaninamide]
- IC50 [1, 8]: ≥ 100 nM
- MIC [3, 11]: ≥ 0.3 µg/mL

SMILES: O=C(Nc1ccncc1)[C@H](Cc1ccccc1)Nc1ccccc1 [Nα-phenyl-N-(4-pyridyl)-phenylalaninamide]
- IC50 [1, 8]: ≥ 100 nM
- MIC [3, 11]: ≥ 0.3 µg/mL

SMILES: O=C(Nc1ccccc1)[C@H](Cc1ccccc1)Nc1ccccc1 [Nα-phenyl-N-phenyl-phenylalaninamide]
- IC50 [1, 8]: ≥ 100 nM
- MIC [3, 11]: ≥ 0.3 µg/mL

SMILES: CO[C@H]1/C=C/O[C@@]2(C)Oc3c(C)c(O)c4c(O)c(c(/C=N/N5CCN(C)CC5)c(O)c4c3C2=O)NC(=O)/C(C)=C\C=C\[C@H](C)[C@H](O)[C@@H](C)[C@@H](O)[C@@H](C)[C@H](OC(C)=O)[C@@H]1C [rifampin, reference compound]
- cross-resistance of AAP1-resistant mutants to the compound [7]: No AAP1-resistant mutant was found to exhibit cross-resistance
- hypersensitivity of AAP1-resistant mutants to the compound [7]: Some AAP1 resistant mutants were found to be hypersensitive
- MIC ([3]; ATCC19420, read-out: MIC with wild-type rpoB and wild-type rpoC, M. smegmatis ATCC19420 wild type, reference for AAP1-resistant mutants): 3.13 µg/mL (≈ 3.8 µM)
